Experimental data from patent publication US20180318275A1, “COMBINATION THERAPY USING PI3K INHIBITOR AND MDM2 INHIBITOR” (Novartis AG, priority 2015, published 2018).

How the values were obtained:
Type in all cases: cell-based
HCT-116 = assay: Cell proliferation (cell count by microscopy), Example 2; conditions: Homo sapiens; HCT-116, single agent, 72 h, cell count relative to DMSO
Experimental: (§1) COMPOUNDS A and B were dissolved in 100% DMSO (Sigma, Catalog number D2650) at concentrations of 20 mM and stored at −20° C. until use. Compounds were arrayed in drug master plates (Greiner, Catalog number 788876) and serially diluted 3-fold (7 steps) at 2000× concentration.
(§2) To test the effect of the combination of COMPOUND A and COMPOUND B on cell proliferation cells were plated in black 384-well microplates with clear bottom (Matrix/Thermo Scientific, Catalog number 4332) in 50 μL media per well at cell densities between 500 and 1250 cells/well (Table 1) and allowed to incubate at 37 degrees, 5% CO2 for 24 h. After 24 h one 384-well plate per cell line was prepared for cell counting by microscopy (see below) without receiving treatment (=‘baseline’). The other cell plates were treated by transferring 25 nL of the 2000× compound from drug master plates using an ATS acoustic liquid dispenser (ECD Biosystems) and resulting in a final 1× concentration. COMPOUND A was used over a final concentration range of 13 nM-10 μM, and COMPOUND B was used over a final concentration range of 13 nM-10 μM (7 1:3 dilution steps). For the combination of COMPOUND A with COMPOUND B the single agents were combined at a fixed ratio of 1:1 at each dilution resulting in 7 combination treatments. […] After compound addition 50 nL of 2 mM CellEvent Caspase-3/7 Green Detection Reagent (ThermoFisher, Catalog number C10423) were added to one of the three replicates using the HP D300 Digital Dispenser (Tecan). Caspase 3/7 induction was measured as a proxy for apoptosis induced by the treatments. Cells were treated for 72 h to 96 h depending on their doubling time (Table 1), and Caspase 3/7 activation was measured every 24 h by microscopy using an InCell Analyzer 2000 (GE Healthcare) equipped with a 4× objective and FITC excitation/emission filters. At the end of the treatment cells were prepared for cell counting by microscopy. Cells were fixed and permeabilised for 45 minutes in 4% PFA (Electron Microscopy Sciences, Catalog number 15714), 0.12% TX-100 (Electron Microscopy Sciences, Catalog number 22140) in PBS (Boston Bioproducts, Catalog number BM-220). After washing cells three times with PBS their DNA was stained for 30 minutes with Hoechst 33342 (ThermoFisher, Catalog number H3570) at a final concentration of 4 μg/mL. Cells were washed three times with PBS and then plates were heat-sealed using a PlateLoc (Agilent Technologies) with aluminum seals (Agilent Technologies, Catalog number 06644-001) and stored at 4° C. until imaging. All cells per well/treatment were captured in a single image by fluorescence microscopy using an InCell Analyzer 2000 (GE Healthcare) equipped with a 4× objective and DAPI excitation/emission filters.
(§3) Images were analyzed after adapting previously described methods (Horn, Sandmann et al. 2011, Nat. Methods 8(4): 341-346) and using the Bioconductor package EBImage in R (Pau, Fuchs et al. 2010, Bioinformatics 26(7):979-981). Objects in both channels, DAPI (for Hoechst/DNA) and FITC (for Caspase 3/7), were segmented separately by adaptive thresholding and counted. A threshold for Caspase 3/7 positive objects was defined manually per cell line after comparing negative controls (DMSO) and positive controls (Staurosporine). By analyzing 17 additional object/nuclei features in the DNA channel (shape and intensity features) debris/fragmented nuclei were identified. To this end per cell line the distributions of the additional features between positive controls (Staurosporine) and negative controls (DMSO) were compared manually. Features that could differentiate between the conditions (e.g. a shift in the distribution of a feature measurement comparing DMSO with Staurosporine) where used to define the ‘debris’ population versus the population of ‘viable’ nuclei. The debris counts were subtracted from raw nuclei counts. The resulting nuclei number was used as measure of cell proliferation (‘cell count’). […]

GP2d = assay: as above; conditions: single agent, 72 h, cell count relative to DMSO, unit from text b187 (micromolar, top dose 10 μM)
Experimental: as §1, §2, §3

LS-180 = assay: as above; conditions: Homo sapiens, LS180; LS-160 (so in the source), single agent, 72 h, cell count relative to DMSO
Experimental: as §1, §2, §3

LoVo = assay: as above; conditions: Homo sapiens, single agent, 96 h, cell count relative to DMSO
Experimental: as §1, §2, §3

RKO = assay: as above; conditions: Homo sapiens, single agent, 72 h, cell count relative to DMSO
Experimental: as §1, §2, §3

[1] = test system: 5 TP53 wild type colorectal cancer cell lines; assay: Cell proliferation over the cell line panel, Example 2; conditions: Example 2, panel of 5 lines, 13 nM-10 μM
Experimental: To test the effect of the combination of COMPOUND A and COMPOUND B on cell proliferation cells were plated in black 384-well microplates with clear bottom (Matrix/Thermo Scientific, Catalog number 4332) in 50 μL media per well at cell densities between 500 and 1250 cells/well (Table 1) and allowed to incubate at 37 degrees, 5% CO2 for 24 h. After 24 h one 384-well plate per cell line was prepared for cell counting by microscopy (see below) without receiving treatment (=‘baseline’). The other cell plates were treated by transferring 25 nL of the 2000× compound from drug master plates using an ATS acoustic liquid dispenser (ECD Biosystems) and resulting in a final 1× concentration. COMPOUND A was used over a final concentration range of 13 nM-10 μM, and COMPOUND B was used over a final concentration range of 13 nM-10 μM (7 1:3 dilution steps). […] Caspase 3/7 induction was measured as a proxy for apoptosis induced by the treatments. Cells were treated for 72 h to 96 h depending on their doubling time (Table 1), and Caspase 3/7 activation was measured every 24 h by microscopy using an InCell Analyzer 2000 (GE Healthcare) equipped with a 4× objective and FITC excitation/emission filters. […] All cells per well/treatment were captured in a single image by fluorescence microscopy using an InCell Analyzer 2000 (GE Healthcare) equipped with a 4× objective and DAPI excitation/emission filters. […]

IC50 (HCT-116) [nM]	IC50 (LoVo) [nM]	Compound	IC50 (GP2d) [nM]	IC50 (LS-180) [nM]	IC50 (RKO) [nM]	Single agent growth inhibition, in words [1]
9800	> 10000	Cc1nc(NC(=O)N2CCC[C@H]2C(N)=O)sc1-c1ccnc(C(C)(C)C(F)(F)F)c1 [COMPOUND A, (S)-Pyrrolidine-1,2-dicarboxylic acid 2-amide 1-({4-methyl-5-[2-(2,2,2-trifluoro-1,1-dimethyl-ethyl)-pyridin-4-yl]-thiazol-2-yl}-amide)]	500	> 10000	3900	inhibited the growth of 2 of the cell lines with micromolar IC50 values, and was active only at the highest dose (10 μM) in the 3 other lines
100	600	COc1cc2c(cc1OC(C)C)[C@H](c1ccc(Cl)cc1)N(c1ccc(N(C)C[C@H]3CC[C@H](N4CCN(C)C(=O)C4)CC3)cc1)C(=O)C2 [COMPOUND B, (S)-1-(4-Chloro-phenyl)-7-isopropoxy-6-methoxy-2-(4-{methyl-[4-(4-methyl-3-oxo-piperazin-1-yl)-trans-cyclohexylmethyl]-amino}-phenyl)-1,4-dihydro-2H-isoquinolin-3-one]	800	700	1200	inhibited the growth of cell lines with sub-micromolar to micromolar IC50 values
